# Target: T1, human TLR7 (Homo sapiens, UniProt Q9NYK1)
# T1 sequence (Q9NYK1 27-1049): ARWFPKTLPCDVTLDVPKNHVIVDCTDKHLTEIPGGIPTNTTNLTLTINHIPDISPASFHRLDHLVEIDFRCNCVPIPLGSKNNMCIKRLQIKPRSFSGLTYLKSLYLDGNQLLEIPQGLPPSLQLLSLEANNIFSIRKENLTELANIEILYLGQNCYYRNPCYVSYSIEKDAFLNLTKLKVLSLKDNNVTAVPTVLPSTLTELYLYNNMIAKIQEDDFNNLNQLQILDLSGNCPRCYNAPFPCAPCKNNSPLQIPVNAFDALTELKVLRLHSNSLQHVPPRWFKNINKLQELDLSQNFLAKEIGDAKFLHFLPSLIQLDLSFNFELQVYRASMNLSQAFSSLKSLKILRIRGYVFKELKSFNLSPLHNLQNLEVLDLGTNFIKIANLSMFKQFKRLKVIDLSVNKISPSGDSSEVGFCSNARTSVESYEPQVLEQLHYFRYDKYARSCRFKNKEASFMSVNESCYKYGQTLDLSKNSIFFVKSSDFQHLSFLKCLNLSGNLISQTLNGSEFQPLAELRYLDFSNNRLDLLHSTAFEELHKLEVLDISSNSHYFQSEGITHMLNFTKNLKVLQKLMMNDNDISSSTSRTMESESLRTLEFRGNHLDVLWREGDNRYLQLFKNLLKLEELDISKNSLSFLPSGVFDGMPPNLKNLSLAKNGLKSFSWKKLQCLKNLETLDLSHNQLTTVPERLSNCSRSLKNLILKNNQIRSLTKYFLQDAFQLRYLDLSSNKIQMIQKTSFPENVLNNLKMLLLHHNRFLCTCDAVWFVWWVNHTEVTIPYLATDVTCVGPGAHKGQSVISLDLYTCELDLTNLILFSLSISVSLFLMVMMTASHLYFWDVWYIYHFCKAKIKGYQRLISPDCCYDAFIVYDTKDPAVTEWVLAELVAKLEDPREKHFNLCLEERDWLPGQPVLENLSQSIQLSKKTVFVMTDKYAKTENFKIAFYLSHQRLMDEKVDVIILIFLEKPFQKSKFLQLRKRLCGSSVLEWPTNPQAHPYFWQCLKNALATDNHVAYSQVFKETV
# Assay: HEK293-Blue hTLR7 reporter assay (QUANTI-BLUE, SEAP readout)
# Type: cell-based
# Design: host or cells: HEK293 (HEK-Blue-hTLR7)
# Conditions: HEK-Blue-hTLR7 cells, QUANTI-BLUE assay (A1-A76), 24 hrs
# Procedure: HEK293-Blue hTLR7 Reporter Assay:
# HEK-Blue-hTLR7 cell line (Invivogen, Cat. No. hkb-htlr7) was designed so that the expression of the secreted embryonic alkaline phosphatase (SEAP) was induced by activating NF-κ and AP-1 via stimulating human TLR7 with TLR7 agonists.
# HEK-Blue-hTLR7 cells were seeded at a density of 4×10^4 cells/well in a volume of 180 μL in a 96-well plate in DMEM (Cat. No. 11965-092) supplemented with 10% (v/v) heat-inactivated fetal bovine serum (FBS) (Gibco, 10099-1441), 100 U/ml penicillin and 100 μg/ml streptomycin (Gibco, 15140122) containing […], […] and 10% (v/v) heat-inactivated fetal bovine serum. The cells were settled for 5 hrs, then treated with increasing amounts of tested compounds at 37° C. for 24 hrs. Then 20 μL of the supernatant from each well was incubated with 180 uL Quanti-blue substrate solution at 37° C. for 10-30 mins before the activity of the SEAP was determined at 620-655 nm using a spectrophotometer. The EC50 value for each compound was calculated with GraphPad Prism software using the sigmoidal dose-response function.
row,SMILES,EC50 [µM]
1,"CCCCOc1nc(N)c2ncc(Cc3ccc(OCCNC)nc3)n2n1 [Compound A58, 2-butoxy-7-((6-(2-(methylamino)ethoxy)pyridin-3-yl)methyl)imidazo[2,1-f][1,2,4]triazin-4-amine]",0.246
2,"CCCCOc1nc(N)c2ncc(Cc3ccc(CN4CCC(N)CC4)cc3)n2n1 [Compound A43, 7-(4-((4-aminopiperidin-1-yl)methyl)benzyl)-2-butoxyimidazo[2,1-f][1,2,4]triazin-4-amine]",0.822
3,"CCCCOc1nc(N)c2ncc(Cc3ccc4c(c3)CCN(C(C)C)C4)n2n1 [Compound A8, 2-butoxy-7-((2-isopropyl-1,2,3,4-tetrahydroisoquinolin-6-yl)methyl)imidazo[2,1-f][1,2,4]triazin-4-amine]",3.03
4,"CCCCOc1nc(N)c2ncc(Cc3ccc(OCCCN(C)C)c(F)c3)n2n1 [Compound A35, 2-butoxy-7-(4-(3-(dimethylamino)propoxy)-3-fluorobenzyl)imidazo[2,1-f][1,2,4]triazin-4-amine]",2.07
5,"CCCCOc1nc(N)c2ncc(Cc3ccc(OC4CCNC4)cc3F)n2n1 (stereo not shown) [Compound A61, 2-butoxy-7-(2-fluoro-4-(pyrrolidin-3-yloxy)benzyl)imidazo[2,1-f][1,2,4]triazin-4-amine]",0.183
6,"CCCCOc1nc(N)c2ncc(Cc3ccc(OCCCN4CCOCC4)cc3)n2n1 [Compound A22, 2-butoxy-7-(4-(3-morpholinopropoxy)benzyl)imidazo[2,1-f][1,2,4]triazin-4-amine]",5.71
7,"Nc1nc(NCc2ccco2)nn2c(Cc3ccc(CN4CCCC4)cc3)cnc12 [Compound A64, N^2-(furan-2-ylmethyl)-7-(4-(pyrrolidin-1-ylmethyl)benzyl)imidazo[2,1-f][1,2,4]triazine-2,4-diamine]",4
8,"CCCCOc1nc(N)c2ncc(Cc3cc(CN4CCCC4)ccc3F)n2n1 [Compound A26, 2-butoxy-7-(2-fluoro-5-(pyrrolidin-1-ylmethyl)benzyl)Imidazo[2,1-f][1,2,4]triazin-4-amine]",> 10
9,"CCCCOc1nc(N)c2ncc(Cc3cnc(OC4CCNCC4)c(C)c3)n2n1 [Compound A72, 2-butoxy-7-((5-methyl-6-(piperidin-4-yloxy)pyridin-3-yl)methyl)imidazo[2,1-f][1,2,4]triazin-4-amine]",0.462
10,"CCCCOc1nc(N)c2ncc(Cc3ccc(CN4CCN(C(=O)CN(C)C)CC4)cc3)n2n1 [Compound A39, 1-(4-(4-((4-amino-2-butoxyimidazo[2,1-f][1,2,4]triazin-7-yl)methyl)benzyl)piperazin-1-yl)-2-(dimethylamino)ethan-1-one]",0.543
11,"CCCCOc1nc(N)c2ncc(Cc3ccc(OC4C[C@H]5CC[C@@H](C4)N5)cc3F)n2n1 (stereo partly drawn) [Compound A38, 7-(4-(((1R,5S)-8-azabicyclo[3.2.1]octan-3-yl)oxy)-2-fluorobenzyl)-2-butoxyimidazo[2,1-f][1,2,4]triazin-4-amine]",1.86
12,"CCCCOc1nc(N)c2ncc(Cc3ccc(CCN4CCCC4)cc3)n2n1 [Compound A42, 2-butoxy-7-(4-(2-(pyrrolidin-1-yl)ethyl)benzyl)imidazo[2,1-f][1,2,4]triazin-4-amine]",1.38
13,"CCCCOc1nc(N)c2ncc(Cc3ccc(CN4CCCC4)cc3F)n2n1 [Compound A20, 2-butoxy-7-(2-fluoro-4-(pyrrolidin-1-ylmethyl)benzyl)imidazo[2,1-f][1,2,4]triazin-4-amine]",1.75
14,"CCCCOc1nc(N)c2ncc(Cc3ccc(OCCCNC)cc3)n2n1 [Compound A63, 2-butoxy-7-(4-(3-(methylamino)propoxy)benzyl)imidazo[2,1-f][1,2,4]triazin-4-amine]",0.996
15,"CCCCOc1nc(N)c2ncc(Cc3ccc(OC4C[C@H]5CC[C@@H](C4)N5CC)cc3F)n2n1 (stereo partly drawn) [Compound A49, 2-butoxy-7-(4-(((1R,5S)-8-ethyl-8-azabicyclo[3.2.1]octan-3-yl)oxy)-2-fluorobenzyl)imidazo[2,1-f][1,2,4]triazin-4-amine]",4.32
16,"CCCCOc1nc(N)c2ncc(Cc3cccc(CN4CCCCC4)c3)n2n1 [Compound A7, 2-butoxy-7-(3-(piperidin-1-ylmethyl)benzyl)imidazo[2,1-f][1,2,4]triazin-4-amine]",> 10

# Same assay, conditions: HEK-Blue-hTLR7 cells, QUANTI-BLUE assay (C1-C6), 24 hrs
row,SMILES,EC50 [µM]
1,"CCCCOc1cc2c(Cc3cnc(N4CCNCC4)c(Cl)c3)cnn2c(N)n1 [Compound C3, 5-butoxy-3-((5-chloro-6-(piperazin-1-yl)pyridin-3-yl)methyl)pyrazolo[1,5-c]pyrimidin-7-amine]",> 10
2,"CCCCOc1cc(N)c2ncc(Cc3cnc(N4CCNCC4)c(C)c3)n2n1 [Compound C5, 6-butoxy-3-((5-methyl-6-(piperazin-1-yl)pyridin-3-yl)methyl)imidazo[1,2-b]pyridazin-8-amine]",> 10
3,"CCCCOc1nc(N)n2ncc(Cc3ccc(CN4CCCC4)cc3)c2n1 [Compound C2, 2-butoxy-8-(4-(pyrrolidin-1-ylmethyl)benzyl)pyrazolo[1,5-a][1,3,5]triazin-4-amine]",> 10

# Target: T2, human TLR 8 protein (Homo sapiens, UniProt Q9NR97)
# T2 construct: expressed in transfected cells; host or cells: HEK293 (HEK-Blue hTLR8)
# T2 sequence (Q9NR97 27-1041): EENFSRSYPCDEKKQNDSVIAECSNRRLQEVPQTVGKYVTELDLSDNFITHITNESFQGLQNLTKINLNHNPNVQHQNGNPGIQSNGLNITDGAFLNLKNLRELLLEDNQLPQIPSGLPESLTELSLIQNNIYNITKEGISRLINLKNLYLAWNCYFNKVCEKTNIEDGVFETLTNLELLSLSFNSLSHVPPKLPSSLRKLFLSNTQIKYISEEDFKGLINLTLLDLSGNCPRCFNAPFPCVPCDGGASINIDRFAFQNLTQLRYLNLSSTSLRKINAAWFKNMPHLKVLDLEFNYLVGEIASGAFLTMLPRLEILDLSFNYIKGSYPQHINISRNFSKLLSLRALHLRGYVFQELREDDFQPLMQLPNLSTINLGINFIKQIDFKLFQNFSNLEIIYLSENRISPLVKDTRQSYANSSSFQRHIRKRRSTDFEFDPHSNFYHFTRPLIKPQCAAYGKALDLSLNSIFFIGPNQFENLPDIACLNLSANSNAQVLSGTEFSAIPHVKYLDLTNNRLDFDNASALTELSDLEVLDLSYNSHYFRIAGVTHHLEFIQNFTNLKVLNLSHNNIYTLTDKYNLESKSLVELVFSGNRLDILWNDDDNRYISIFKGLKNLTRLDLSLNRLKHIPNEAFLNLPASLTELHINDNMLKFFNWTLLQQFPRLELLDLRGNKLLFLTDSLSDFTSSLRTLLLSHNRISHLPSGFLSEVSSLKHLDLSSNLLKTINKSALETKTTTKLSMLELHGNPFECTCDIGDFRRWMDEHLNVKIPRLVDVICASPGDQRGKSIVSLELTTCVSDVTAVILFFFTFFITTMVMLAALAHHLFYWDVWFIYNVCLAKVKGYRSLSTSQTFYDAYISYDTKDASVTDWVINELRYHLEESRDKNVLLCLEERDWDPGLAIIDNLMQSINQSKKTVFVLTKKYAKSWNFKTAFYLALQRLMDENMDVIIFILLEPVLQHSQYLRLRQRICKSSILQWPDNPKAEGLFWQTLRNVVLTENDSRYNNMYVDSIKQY
# Assay: TLR8 stimulation determined using HEK-Blue Detection
# Type: cell-based
# Conditions: HEK-Blue hTLR8 cells, 16 hr, relative to Resiquimod or Motolimod maximum
# Description: TLR8 Stimulation Determined Using HEK-Blue Detection
# This assay was designed for studying the stimulation of human TLR 8 protein in HEK-Blue hTLR8 tool cell line by monitoring the activation of NF-1B. HEK-Blue hTLR8 cells were obtained by co-transfection of the hTLR8 gene and an optimized secreted embryonic alkaline phosphatase (SEAP) reporter gene into HEK293 cells. The SEAP reporter gene was placed under the control of the IFN-β minimal promoter fused to five NF-κB and AP-1-binding sites. Stimulation with a TLR 8 ligand activates NF-κB and AP-1 which induce the expression of SEAP. Levels of SEAP can be easily determined with HEK-Blue Detection, a cell culture medium that allows for real-time detection of SEAP. HEK-Blue Detection contains all the nutrients necessary for cell growth and a specific SEAP color substrate. The hydrolysis of the substrate by SEAP produces a purple/blue color that can be measured with a spectrophotometer.
# When growing to 50-80% confluency, HEK-Blue hTLR7/8 cells were plated into 96-well plate (costar 3599) at a density of 40000 cells/well. Then compounds were added with serial dilutions over 10 points with a 1 nM-10 uM final concentration range in 0.1% DMSO/HEK-Blue Detection. The plates were then incubated for 16 hr at 37° C. in 5% CO2. The optical density at 620-655 nm was read on BMG PHERAstar FSX instrument. The EC50 for each compound was determined by calculating the percentages of the maximum activation identified with Resiquimod or Motolimod.
row,SMILES,EC50 [µM]
1,"CCCCOc1nc(N)c2ncc(Cc3ccc(OCCNC)nc3)n2n1 [Compound A58, 2-butoxy-7-((6-(2-(methylamino)ethoxy)pyridin-3-yl)methyl)imidazo[2,1-f][1,2,4]triazin-4-amine]",0.183
2,"CCCCOc1nc(N)c2ncc(Cc3ccc(CN4CCC(N)CC4)cc3)n2n1 [Compound A43, 7-(4-((4-aminopiperidin-1-yl)methyl)benzyl)-2-butoxyimidazo[2,1-f][1,2,4]triazin-4-amine]",0.255
3,"CCCCOc1nc(N)c2ncc(Cc3ccc4c(c3)CCN(C(C)C)C4)n2n1 [Compound A8, 2-butoxy-7-((2-isopropyl-1,2,3,4-tetrahydroisoquinolin-6-yl)methyl)imidazo[2,1-f][1,2,4]triazin-4-amine]",0.187

# Reference: patent publication US12281119B2, “Imidazo[2,1-f][1,2,4]triazin-4-amine derivatives as TLR7 agonist” (BEIGENE, LTD., priority 2019, dated 2025)
